Columns and labels:
[1] = Body weight changes in SW480 xenograft study; type: in vivo, NOD/SCID mice; settings: day-17; oral BID*BIW, 45 mg/kg days 1-10, 50 mg/kg days 11-22
Experimental: (§1) NOD/SCID mice of circa 23 g of weight were inoculated with 1×10^7 SW480 human colorectal cancer cells in 50% Matrigel™ subcutaneously in a flank. A pair match was performed when tumors reached an average volume of 100-150 mm^3 to distribute animals into treatment group and vehicle control (n=8/group). Tumor volumes (expressed in mm^3) were measured twice weekly using a caliper on days 1, 4, 8, 11, 15, 18, 22 and 23 of the treatment period. (A) The average TVol (±standard error of mean (SEM)) of each treatment group are shown. […] (B) Changes in BW in percentage (expressed in g, ±SEM) on days 1, 4, 8, 11, 15, 18, 22 and 23 of the treatment period. (C) Changes in vehicle- and Example 13-treated TVol expressed in mm^3. TVol ratio of Example 13-treated vs vehicle control (T/C) is indicated.
Female 8-9 weeks of age NOD/SCID mice of about 23 g of weight were used for the study (Jiangsu GemPharmatech Co., Ltd). Mice were inoculated subcutaneously in the flank region with 1×10^7 SW480 cells in PBS mixed with Matrigel™ (1:1) in a final injection volume of 0.2 mL/mouse. Once tumors reached an average size of 100-150 mm^3, a pair match was carried out to distribute mice to the different treatment groups. […]
(§2) Tumor volumes (expressed in mm^3) were measured in two dimensions using a caliper on days 1, 4, 8, 11, 15, 18, 22 and 23 of the treatment period. […]

MDA-MB-231 cells = test: MDA-MB-231 proliferation assay; type: cell-based; settings: Homo sapiens, MDA-MB-231, 72 h, YO-PRO-1 Iodide readout
In short: (§3)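 Cells seeded at 750 per well, treated next day for 72 h at 37 °C with 0.5% final DMSO. Cell number read by YO-PRO-1 fluorescence after lysis, normalized to DMSO (100%) and time-zero cells (0%). GI50 from 4-parameter logistic fit, maximum constrained to 100%.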

[2] = test system: SW480 human colorectal cancer cells; test: SW480 colorectal cancer mouse xenograft model; type: in vivo, NOD/SCID mice
Experimental: as §1
The efficacy of Example 13 was assessed in a mouse xenograft model. To this end, the SW480 colorectal cancer xenograft model was used, in which the tumor cells were injected subcutaneously into the flanks of immune-deficient NOD/SCID mice (lack functional/mature T and B cells, functional immature macrophages and residual NK cell function). […]
as §2

CAL-51 cells = test: CAL-51 proliferation assay; type: cell-based; settings: Homo sapiens, CAL-51, 72 h, YO-PRO-1 Iodide readout
In short: as §3

GI50 (MDA-MB-231 cells): 100 to 2000 nM
Compound: COCCN(C)c1c(O[C@H]2CC[C@H](N)CC2)ccc2c1CC(C)(C)c1c(N)ncnc1-2 [Example 13, 8-(trans-4-aminocyclohexoxy)-N7-(2-methoxyethyl)-N7,5,5-trimethyl-6H-benzo[h]quinazoline-4,7-diamine]
maximal body weight loss [1]: 5%
tumor volumes during the treatment period compared with vehicle-treated ([2]; oral 45 mg/kg BID*BIW, treatment period): consistently smaller
tumor volumes as % of the volume of the vehicle-treated group (T/C) ([2]; study endpoint day 23, oral BID*BIW, 45 mg/kg days 1-10, 50 mg/kg days 11-22, p=0.06): 61%
GI50 (CAL-51 cells): < 100 nM

— patent US20260159486A1, “BENZO[H]QUINAZOLINE-4-AMINE DERIVATIVES FOR THE TREATMENT OF CANCER” (Redona Therapeutics, Inc., priority 2021, published 2026)
